Assay results published in patent US20250333486A1, “Anti-HSP90 alpha antibody and uses thereof” (NATIONAL HEALTH RESEARCH INSTITUTES, priority 2021, published 2025).

Legend:
[1] = system: ARPE-19 retinal pigmented epithelial cells; test: Retinal cell toxicity assay (MTS); format: cell-based, human; settings: 72-h treatment, MTS; read-out: IC50 of cytotoxicity to ARPE-19 cells
Experimental: ARPE-19 cells were seeded onto 96-well plates at a density of 4000 cells per well, and then treated in triplicate with various concentrations of 17-AAG or anti-HSP90α antibody HH01 for 72 h. The 3-(4,5-dimethylthiazol-2-yl)-5-(3-carboxymethoxyphenyl)-2-(4-sulfophenyl)-2H-tetrazolium (MTS; Sigma-Aldrich) assay was employed and OD490 was measured to evaluate cell viability upon each treatment.

eHSP90α—TLR4 ligation = settings: Chua et al., Cells 2020; cited from earlier work
[2] = system: PANC-1 plus EndoMT cell grafts; test: Therapeutic efficacy in desmoplastic humanized mouse PDAC transplant model; format: in vivo; settings: hHSC-transplanted ASID mice; antibody 5 mg/kg x3, gemcitabine 100 mg/kg x2, IV
PANC-1 cells [3] = test: Cell spheroid-forming assay, rHSP90α-induced PANC-1 spheroids; format: cell-based, human; settings: 15 μg/ml rHSP90α plus 15 μg/ml peptide
Experimental: One thousand cancer cells were seeded onto each well of 24-well plates pre-coated with a 4-mm thick layer of 0.5% agarose. After incubation 24 h with serum-free medium at 37° C. plus a 5% CO2 humidified atmosphere, cells were added with PBS or 15 μg/ml of rHSP90α in the absence or presence of 10 μg/ml of control IgG or the tested anti-HSP90α antibody. The incubation was kept for 10-14 days with supplements of some fresh serum-free medium every 3 days. Finally, the cell spheroids characterized by tight, non-adherent, and >100 μm in diameter were photographed and counted under an Olympus IX 71 inverted microscope (Center Valley, PA, USA). The spheroid formation % was calculated by the formula: (number of cell spheroids/1000)×100%.

PANC-1 cells [4] = test: Transwell invasion assay, rHSP90α-induced PANC-1 invasion; format: cell-based, human; settings: 15 μg/ml rHSP90α plus 15 μg/ml peptide
Experimental: In a 37° C. and 5% CO2 humidified incubator, cancer cells were subjected to serum starvation in 0.5% FBS-containing medium for 16 h, and then added […] After another 24 h, the treated cells were harvested as aliquots (1×10^5 cells per aliquot) in 0.5% FBS-containing culture medium, and then each aliquot was seeded into a top chamber of Transwell inserts pre-coated with 5-fold diluted Matrigel (BD Biosciences). Cells were allowed 16 h to invade through the Matrigel toward the bottom chambers containing culture medium plus 10% FBS. The filters of the Transwell inserts were then fixed and stained with Giemsa. Invasive cells on the lower side of filters were photographed using the Axiovert S100/AxioCam HR microscope system (Carl Zeiss, Oberkochen, Germany) and further quantified by the Image-Pro Plus software (Media Cybernetics, Inc., Silver Spring, MD, USA).

C=CCNC1=C2C[C@@H](C)C[C@H](OC)[C@H](O)[C@@H](C)/C=C(\C)[C@H](OC(N)=O)[C@@H](OC)/C=C\C=C(/C)C(=O)NC(=CC1=O)C2=O [Clone 17-AAG, 17-AAG, reference compound]
IC50 [1]: 64.7 nM

CCCCCCCCOC(=O)c1cc(O)c(O)c(O)c1 [Octyl gallate]
effect on EndoMT-derived CAFs and eHSP90α-induced macrophage M2-polarization and HSP90α expression (eHSP90α—TLR4 ligation): inhibitory effect

Nc1ccn([C@@H]2O[C@H](CO)[C@@H](O)C2(F)F)c(=O)n1 [gemcitabine]
tumor growth curves [2]: significantly repressed tumors after the second administration of gemcitabine

peptide with a sequence of the a.a. 227-272 region of HSP90α: synthesized epitopes-containing peptide with the sequence of a.a. 227-272 of HSP90α (DKEVSDDEAEEKEDKEEEKEKEEKESEDKPEIEDVGSDEEEEKKDG; UniProt P07900 227-272, looked up, fragment)
rHSP90α-induced PANC-1 spheroid formation (PANC-1 cells [3]): competitively suppressed
rHSP90α-induced PANC-1 cell invasion (PANC-1 cells [4]): competitively suppressed
